Source: PubChem BioAssay AID849 (SRMLSC, 2007)
Calls of active or inactive are those of the source. How the calls were made is not given here.

The molecules below were run on Saccharomyces cerevisiae lifespan shortening, growth inhibition (assay: yeast lifespan shortening compounds, dose response (AID 849);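 further: yeast growth read as optical density after two days at 30 degrees C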).

Structure (SMILES)	IC50
CCCCc1oc2ccccc2c1C(=O)c1cc(I)c(OCCN(CC)CC)c(I)c1	7.79 µM
CCOC(=O)c1c(NC(=S)Nc2ccc(Cl)cc2)sc2c1CCN(C)C2	7.82 µM
CCN1CCN(c2ncnc3c2sc(=S)n3-c2ccccc2)CC1	> 100 µM (inactive)
COc1ccccc1C(=O)NNC(=S)NC(=O)c1ccco1	> 100 µM (inactive)
Cc1ccc(S(=O)(=O)Nc2ccc(SC(F)F)cc2)c(C)c1	> 100 µM (inactive)
C=CCn1c2ccccc2c2nnc(SCN3C(=O)c4ccccc4C3=O)nc21	> 100 µM (inactive)
CC1(CCc2ccccc2)NC(=S)N(c2ccccc2)N1 (stereo unspecified)	14.1 µM
CCCCS(=O)(=O)/C=C\C=C/S(=O)(=O)CCCC	> 100 µM (inactive)
O=C(O)c1ccccc1C(=O)NNc1ccc(Cl)cc1	4.61 µM
OC(COc1ccc2ccccc2c1Br)Cn1cnc(-c2ccccc2)c1 (stereo unspecified)	49.3 µM
O=C(O)c1cc2c(s1)-c1ccccc1CC2	30.5 µM
CC(C)(C)c1ccc(NC(=O)COC(=O)c2ccc([N+](=O)[O-])s2)cc1	34 µM
COc1ccc2c(c1)c1nnc(SC)nc1n2C	44.1 µM
N#C/C(=C\c1ccc([N+](=O)[O-])o1)c1nc2ccccc2[nH]1	> 100 µM (inactive)
CC1(C)C[C@H]2C=C(C=O)[C@]3(C=O)C[C@]3(C)[C@H]2C1	5.25 µM
Cc1ccc(N/N=C(\C#N)C(N)=S)c(C)c1	> 100 µM (inactive)
Oc1ccc(N=Nc2cccc(Cl)c2)cc1C=Nc1ccc(N2CCOCC2)cc1	> 100 µM (inactive)
O=C1c2ccccc2NC(c2ccc(-c3cccc(Cl)c3)o2)N1O (stereo unspecified)	35 µM
Fc1ccc(-c2ccc(-c3nn4c(-c5ccco5)nnc4s3)o2)cc1	> 100 µM (inactive)
O=C1c2ccccc2C(=O)C1c1ccc2ccccc2n1	> 100 µM (inactive)
CCOc1cc(C2CC(=O)N3CN(C4CCCCC4)CSC3=C2C#N)ccc1O (stereo unspecified)	> 100 µM (inactive)
CC(=O)Oc1ccc(N2C(=O)C3C(C2=O)C2(C)C=CC3(C)O2)cc1 (stereo unspecified)	> 100 µM (inactive)
Cc1noc2ncnc(Sc3ccccc3Cl)c12	26.6 µM
C=CCn1c(C)cc(C(=O)CSc2nnc(NCc3ccccc3)s2)c1C	> 100 µM (inactive)

Structure (SMILES)	IC50
CCC(=O)NC(c1ccc(C)cc1)c1cc([N+](=O)[O-])c2cccnc2c1O (stereo unspecified)	25.3 µM
Oc1c(I)cc(I)c2cccnc12	23.9 µM
Cc1ccc(-c2nnc3ccc(SC(C)C(=O)O)nn23)cc1 (stereo unspecified)	> 100 µM (inactive)
CCc1cc(-c2n[nH]c(C)c2Oc2ccc(C(C)C)cc2)c(O)cc1O	31.4 µM
Cc1nnc(C)n1/N=C/c1cc(Br)cc(Br)c1O	9.23 µM
O=C(Cc1ccccc1)NCCc1cn2ccsc2n1	> 100 µM (inactive)
Cc1ccc(N/N=C/c2cccnc2)cc1	39.6 µM
O=C(OCn1ncc(Br)c(Br)c1=O)c1ccc(F)cc1	6.92 µM
N=c1n(CCN2CCOCC2)c2ccccc2n1CC(=O)c1ccc(Cl)c(Cl)c1	> 100 µM (inactive)
O=C(COc1ccccc1)N1CCN=C1SCc1cccnc1	> 100 µM (inactive)
O=C1OCC(CO)(CO)N=C1NNc1ccccc1Cl	6.45 µM
CCOC(=O)c1ccc(-n2[nH]c(-c3ccccc3)cc2=O)cc1	17.1 µM
Cc1ccc2nc3c(nc2c1)-c1ccccc1C3=O	30.3 µM
COc1ccc(C(=O)NC(=S)NNC(=O)c2cnccn2)cc1	16.3 µM
COc1cc(CNCCN2CCOCC2)ccc1OCc1cccc(Cl)c1	> 100 µM (inactive)
COc1ccc(/C=C/C(=O)c2cc(Br)ccc(=O)c2O)cc1	12.6 µM
Cc1cc(C(=O)COC(=O)c2ccc[nH]c2=O)c(C)n1-c1ccc(F)cc1	43 µM
COc1ccc(-c2cc3nc(C)cc(N4CC(C)CC(C)C4)n3n2)cc1 (stereo unspecified)	42.2 µM
CC1Cc2ccccc2N1C(=O)CSC1=NCCS1 (stereo unspecified)	> 100 µM (inactive)
COc1ccc(NC(=O)CC2SC(=Nc3ccccc3)NC2=O)c(OC)c1 (stereo unspecified)	> 100 µM (inactive)
Cc1cccc(Cn2ncc(Cl)c(Cl)c2=O)c1	37.4 µM
O=[N+]([O-])c1ccc(CN2CCCCCC2)s1	> 100 µM (inactive)
Clc1cc2nc3ccccn3c2cc1Cl	51.5 µM
CC(C)(Oc1ccc(Cl)cc1)C(=O)NC1=NN(c2ccccc2)C(=O)C1	18.2 µM

Structure (SMILES)	IC50
CCc1cccc2c(C(=O)COC(=O)c3ccc([N+](=O)[O-])s3)c[nH]c12	29.2 µM
COc1ccc(Nc2cnn(-c3nc4ccccc4s3)c(=O)c2Cl)cc1	> 100 µM (inactive)
CCCCC(=O)NNC(=S)NC(=O)CCC	32.3 µM
CCOc1cccc(-c2nnc3n2N=C(c2cc(OC)ccc2OC)CS3)c1	> 100 µM (inactive)
c1cncc(-c2nnc(-c3cccnc3)nn2)c1	25.9 µM
Cc1ccc(N=Cc2cccc(O)c2O)c(C)c1	13.1 µM
O=C1CC(N2CCN(c3nc4ccccc4s3)CC2)C(=O)N1Cc1cccs1 (stereo unspecified)	> 100 µM (inactive)
Cn1c(N2CCOCC2)c(/C=N/OC(=O)c2ccc(F)cc2)c2ccccc21	42.2 µM
COc1cc(OC)nc(NC(=O)CS(=O)(=O)c2ccccc2)n1	33.4 µM
O=c1[nH]c2ccccc2c2nc3ccccn3c12	40 µM
O=Nc1c(O)n(Cc2ccc(Cl)c(Cl)c2)c2ccccc12	> 100 µM (inactive)
O=c1c(-c2ccccc2)nc(-c2ccccc2)cn1O	15.1 µM
Cc1c(C=O)c2ccccn2c1C(=O)c1ccncc1	> 100 µM (inactive)
O=c1c2c([N+](=O)[O-])cc([N+](=O)[O-])cc2sn1-c1ccc(Br)cc1	> 100 µM (inactive)
COc1cc(/C=N/N(C)c2ccccc2)cc(Cl)c1O	> 100 µM (inactive)
Cc1ccc(CNC(=O)CS(=O)Cc2nc(-c3cccs3)oc2C)cc1 (stereo unspecified)	> 100 µM (inactive)
CCCc1ccc(OCC(=O)NNC(=S)NC(=O)c2ccco2)cc1	15.1 µM
CC(C)C(=O)NC(c1ccccc1)c1cc([N+](=O)[O-])c2cccnc2c1O (stereo unspecified)	14.2 µM
O=C(O)CCn1cc(/C=C/C(=O)c2ccc(Cl)cc2)c(-c2ccc(Br)cc2)n1	> 100 µM (inactive)
Oc1ccc(/C=N/N=C(c2ccccc2)c2ccccc2)c(O)c1O	23.7 µM
Clc1ccc(N/N=C/c2ccncc2)cc1Cl	> 100 µM (inactive)
Oc1ccc(CN2CCCCC2)c2cccnc12	46.4 µM
C=CCSc1nnc2nc3c(nn12)c1cc(C)ccc1n3CC=C	> 100 µM (inactive)
C=CCSC(=C(C#N)C#N)c1cc2c([nH]1)CCCC2	> 100 µM (inactive)

Structure (SMILES)	IC50
COc1cc(C(=O)NC(=S)NNC(=O)c2cnccn2)cc(OC)c1OC	12.8 µM
OCCN(CCO)CC(O)COc1ccc(C23CC4CC(CC(C4)C2)C3)cc1 (stereo unspecified)	35.7 µM
Cc1ccc(-c2nc(N)sc2-c2ccccc2)cc1C	> 100 µM (inactive)
Cn1c(-c2ccco2)nc2cc3ccccc3cc21	39.7 µM
O/N=C/c1cc(Cl)ccc1OCc1cccc2ccccc12	> 100 µM (inactive)
CN1CCN(Cc2cc(COCc3ccccc3)c3cccnc3c2O)CC1	26 µM
COc1ccc(-c2cc(C(=O)N3CCN(c4ncccn4)CC3)c3ccccc3n2)c(OC)c1	49.8 µM
CCn1c2ccc(C)cc2c2nc3cc(C(=O)O)ccc3nc21	9.6 µM
Clc1ccc(N/N=C/c2cccnc2)cc1	> 100 µM (inactive)
COC(=O)c1ccc(CSc2ccc3nnc(-c4cccc(F)c4)n3n2)o1	> 100 µM (inactive)
C=CCNC(=S)N/N=C(\C)c1ccccn1	17.6 µM
O=C1C=C(c2ccc(Cl)cc2)C(=O)N1Nc1ccccc1	4.66 µM
CC(=O)NC(=S)c1c(N)n(Cc2ccccc2)c(=O)n(C)c1=O	> 100 µM (inactive)
Cc1ccc(CNC(=O)c2ccc(Cn3nc(C)c(Cl)c3C)o2)cc1	12.4 µM
Cc1oc(-c2cccs2)nc1CS(=O)CC(=O)NC1CCCCCC1 (stereo unspecified)	> 100 µM (inactive)
O=C1C=C(c2ccccc2)C(=O)N1Nc1ccccc1	12 µM
CCS(=O)(=O)n1nc(-c2ccc(Cl)cc2)nc1SCc1ccccc1	> 100 µM (inactive)
CCOc1cc(/C=N/Nc2ccccc2Cl)ccc1OCC(=O)O	11.6 µM
O=c1c2cccc3c2c(nn1CN1CCOCC1)-c1ccccc1-3	23.5 µM
CC1CCCC2(C1)NC(=S)N(c1ccccc1)N2 (stereo unspecified)	38.2 µM
NNC(=O)c1cccc(COc2ccc(Br)cc2)c1	41.9 µM
CCCC1COC(Cn2cncn2)(c2ccc(Cl)cc2Cl)O1 (stereo unspecified)	0.274 µM
Brc1ccccc1-c1nnc(CSc2nnc3sc4ccccc4n23)o1	> 100 µM (inactive)
O=C(Nc1cccc(C(F)(F)F)c1)C(Sc1cccc[n+]1[O-])c1ccccc1 (stereo unspecified)	21.5 µM

Structure (SMILES)	IC50
O=C1ON=C(c2ccccc2)/C1=C/c1ccc(OS(=O)(=O)c2ccccc2)cc1	18.9 µM
Cc1cc(C)cc(N=Cc2ccc([N+](=O)[O-])s2)c1	13.1 µM
O=[N+]([O-])c1cc(Cc2ccccc2)cc(C=Nc2ccc(N3CCOCC3)cc2)c1O	> 100 µM (inactive)
CCCCc1ccc(NS(=O)(=O)c2cccs2)cc1	35.3 µM
CCCOC(=O)c1ccc(Oc2cn[nH]c2-c2ccc(OC)cc2O)cc1	26 µM
COc1ccc(C(=O)/C=C/N2CCCCC2)cc1OC	21.4 µM
CN1CCN(C2=Cc3cc(Cl)ccc3Sc3cc(F)ccc32)CC1	15.2 µM
CC1CCc2c(sc3nc(CN4CCOCC4)nc(Sc4ccccc4)c23)C1 (stereo unspecified)	> 100 µM (inactive)
O=C(OCn1ncc(Cl)c(Cl)c1=O)c1ccc(F)cc1	> 100 µM (inactive)
CCn1ncc(C2=NOC(C(=O)Nc3c(C)n(C)n(-c4ccccc4)c3=O)C2)c1C (stereo unspecified)	> 100 µM (inactive)
O=C(c1c[nH]c(C(=O)C(Cl)(Cl)Cl)c1)c1ccccc1Cl	> 100 µM (inactive)
Cc1ccc2c(c1)C(=NC1CCCCC1)c1cc3ccccc3nc1-2	41.3 µM
O=C1NC(c2ccccn2)Nc2sc3c(c21)CCC3 (stereo unspecified)	> 100 µM (inactive)
Nc1[nH]c(=O)ncc1F	11.8 µM
O=S(=O)(Nc1ccc(-c2csc(-c3ccccc3)n2)cc1)c1ccc(F)cc1	> 100 µM (inactive)
O=C1NCCCC1C(=O)N/N=C/c1cccc(O)c1 (stereo unspecified)	> 100 µM (inactive)
Cc1ccccc1OCCCN1C(=O)C(=O)c2cccc(C)c21	> 100 µM (inactive)
Oc1ccc(Cl)cc1Cc1cc(Cl)ccc1O	21 µM
CN(O)/C=c1/ccc2c(n1)C(=O)C=CC=2	8.11 µM
Cc1cccc(CSc2cccc3cccnc23)c1	33.1 µM
